Assay results from patent US20240418723A1, “SEQUENTIAL TREATMENTS AND BIOMARKERS TO REVERSE RESISTANCE TO KINASE INHIBITORS” (Queen Mary University of London, priority 2021, published 2024).

How the values were obtained:
[1] = tested on: CD34-positive human haematopoietic cells; assay: FACS analysis of healthy CD34-positive haematopoietic cells after LSD1i and MEKi sequential treatment; type: cell-based
Source text: We next tested whether the LSD1i->MEKi sequential treatment may be affecting healthy human haematopoietic (CD34-positive) cells. We observed an increase in the expression of differentiation markers, such as CD11b and CD14, but no effect on the proportion of CD34-positive cells as a result of treatment with LSD1i (FIG. 11, A to C).
Umbilical cord bloods were purchased from Anthony Nolan. Mononuclear cells (MNCs) were isolated by Ficoll prior red blood cells (RBC) lysis buffer (BioLegend, catalog #420301). Cells were then stained with CD34 immunomagnetic positive selection kit (EasySep™ Human CD34 Positive Selection Kit II, StemCell technologies, catalog #17856, according to manufacturer instructions). Purity of CD34^+ cells isolated from MNCs was assessed by flow cytometry prior to long term storage in liquid nitrogen. For AML samples, patients gave informed consent for the storage and use of their blood cells for research purposes. Experiments were performed in accordance with the Local Research Ethics Committee, as previously described. Mononuclear cells from peripheral blood or bone marrow biopsies were isolated in the BCI tissue bank facility and stored in liquid nitrogen.
For the establishment of the feeder layer, MS-5 cells were plated onto 6-well plates (for the co-culture with CD34+ cord blood cells) or 96-well plates (for the co-culture with primary AML cells) at a density of 5-10,000 cells/cm^2 (48,000 cells for each well of a 6-well plate, or 3,200 cells for each well of a 96-well plate) with IMDM medium. Cells were then incubated at 37° C. for 48 hours, or until a confluency of approximately 70% was reached, after which they were irradiated with an X-ray source at 680 cGy. Following irradiation, the growth medium was removed and replaced with complete H5100 medium, and cell were incubated at 37° C. for a further 24 hours.
Following recovery, cord blood-derived CD34+ cells or primary AML cells were added to the plates containing the established MS-5 feeder layers. CD34+ cells were added at a density of 20,000 cells/well of a 6-well plate, whilst primary AML cells were added at 8,300 cells/well of a 96-well plate. Cells were then left to incubate at 37° C. and to recover for 4 days, after which treatments were started. […] Following treatment, CD34+ cells were harvested by collecting culture medium in FACS tubes. Adherent cells were detached by briefly incubating with trypsin-EDTA, then also added to the respective FACS tubes. Cells were centrifuged at 300×g for 8 minutes, the supernatant was removed and cells were resuspended in 1 mL PBS+2% FBS, then processed for FACS analysis as described below. For primary AML, cells were resuspended and transferred to separate 96-well plates, after which they were processed for Guava ViaCount analysis, as described below. […]

[2] = tested on: P31/Fuj cells; assay: Subcellular (cytosolic and nuclear/organelle) proteomics of LSD1i-treated P31/Fuj cells; type: cell-based
Procedure: Isolation of nuclear/organelle and cytosolic fractions for proteomic analysis was carried out as described below.
The isolation of cytosolic and nuclear/organelle proteins was performed as follows. Cells (10×10^6 cells per replicate) were resuspended in 1 mL hypotonic lysis buffer (containing 10 mM Tris-HCl pH 8.0, 1 mM KCl, 1.5 mM MgCl2, 1 mM DTT, 1 mM Na3VO4 and 1 mM NaF) and incubated at 4° C. for 30 minutes on a rotator. Nuclei/organelles were then pelleted (10,000×g, 10 min, 4° C.), after which the supernatant (cytosolic fraction) was transferred to fresh tubes. The nuclear/organelle fraction was further processed for proteomic analysis by adding 8M urea buffer as indicated above.
Proteins in the supernatant were isolated by methanol/chloroform precipitation as follows. Methanol was added to the protein solution (at 4×initial volume), followed by chloroform (1×initial volume) and ddH2O (3×initial volume), vortexing after each addition. Samples were centrifuged for 2 min, 12,000×g, 4° C., and the top aqueous layer was removed. Additional methanol was added (4×initial volume) and samples vortexed. Samples were centrifuged for 3 min, 12,000×g, 4° C., and the supernatant removed. Protein pellets were dried briefly at RT, then resuspended in 8M urea buffer. Homogenisation, cysteine alkylation and tryptic digestion of the nuclear and cytosolic fractions were carried out as described above. Desalting was performed through C18 spin columns (Glygen Corporation, Cat. TT2C18) following the manufacturer's indications. Briefly, columns were equilibrated twice with 200 μL 70% ACN, and washed twice with 200 μL 1% ACN. Peptide samples were loaded onto the columns, then washed twice with 200 μL 1% ACN, with spinning. […] Columns were spun for 2 min at 1,500×g, 4° C. each time they were loaded.

[3] = tested on: P31/Fuj cells; assay: Phosphoproteomics (LC-MS/MS) and kinase network analysis of treated P31/Fuj cells
Procedure: To study ATRA effect over the phosphoproteome, P31/Fuj cells (10×10^6 cells at 0.5×10^6 cell/mL) were seeded in T75 flask and treated with either Et-OH, 1 μM ATRA or 10 μM ATRA for 5 days. […] For both experiments, cells were collected by centrifugation (1500 rpm for 5 min at 5° C.), then cell pellets were washed twice with ice cold PBS supplemented with phosphatase inhibitors (1 mM Na3VO4, 1 mM NaF) and stored at −80° C. Pellets were processed for phosphoproteomics analysis as indicated below.
In brief, cell pellets were lysed in 300 μL of urea buffer (8 M urea in 20 mM HEPES, pH 8.0, supplemented with 1 mM Na3VO4, 1 mM NaF, 1 mM Na4P2O7 and 1 mM P-glycerophosphate). Lysates were further homogenized by sonication (30 cycles of 30 s on 30 s off; Diagenode Bioruptor® Plus) and insoluble material was removed by centrifugation. Protein was quantified using BCA (Thermo Fisher Scientific). Then, 500 μg of protein were subjected to cysteine alkylation using sequential incubation with 10 mM dithiothreitol (DDT) and 16.6 mM iodoacetamide (IAM) for 1 h and 30 min, respectively, at 25° C. with agitation. Trypsin beads (50% slurry of TLCK-trypsin; Thermo Fisher Scientific; Cat. #20230) were equilibrated with 3 washes with 20 mM HEPES (pH 8.0), the urea concentration in the protein suspensions was reduced to 2 M by the addition of 20 mM HEPES (pH 8.0), 100 μL of equilibrated trypsin beads were added and the samples were incubated overnight at 37° C. Trypsin beads were removed by centrifugation (2000×g at 5° C. for 5 min) and the resulting peptide solutions were desalted through Oasis HLB cartridges (Waters) following the manufacturer's indications. Briefly, cartridges were set in a vacuum manifold device and the pressure was adjusted to 5 mmHg. Then, cartridges were conditioned with 1 mL acetonitrile (ACN) and equilibrated with 2.5 mL of wash solution (0.1% trifluoroacetic acid (TFA), 2% ACN). Peptides were loaded in the cartridges and washed with 1 mL of wash solution. Finally, peptides were eluted with 500 μL of glycolic acid buffer 1 (1 M glycolic acid, 5% TFA, 50% ACN). Enrichment of phosphorylated peptides was performed with TiO2 Beads (GL Sciences). The eluents were normalized to 1 mL with glycolic acid buffer 2 (1 M glycolic acid, 5% TFA, 80% ACN) and incubated with 50 μl of TiO2 buffer (50% slurry in 1% TFA) for 5 min at room temperature. TiO2 beads were packed by centrifugation into empty spin columns (Glygen Corporation; Cat. TT2EMT) previously washed with ACN. TiO2 beads were sequentially washed by centrifugation (1500×g for 3 min) with 100 μL of glycolic acid buffer 2, ammonium acetate solution (100 mM ammonium acetate in 25% ACN) and twice with neutral solution (10% ACN). For phosphopeptide elution, spin tips were transferred to fresh tubes, 50 μL of elution solution (5% NH4OH, 7.5% ACN) were added and tips were centrifuged at 1500×g for 3 min. The elution step was repeated a total of 4 times. Finally, samples were snap frozen, dried in a SpeedVac and phosphopeptide pellets were stored at −80° C.

[4] = LSD1i 5 days, healthy CD34-positive cells co-cultured with MS5 (FIG. 11)
[5] = 0.5 μM LSD1i 5 days versus control (FIG. 21A)
[6] = 0.5 μM LSD1i 5 days versus control (FIG. 21B)
[7] = LSD1i, pathway analysis of proteomics data (FIG. 21 C, D)
[8] = LSD1i by itself, 2.5 z-score threshold (FIG. 6C)
[9] = LSD1i relative to control (FIGS. 6 C, D, 18B)
[10] = LSD1i treatment, P31/Fuj (FIG. 19A)

## O=C(O)c1ccc(CN2CCC(CN[C@@H]3C[C@H]3c3ccccc3)CC2)cc1 [GSK2879552]
[1]; LSD1i 5 days then MEKi 3 days
  effect on normal stem/progenitor cell compartment: preserved the normal stem/progenitor cell compartment
[1]; LSD1i 5 days then MEKi 3 days, mostly restricted to the more mature CD34-negative cells (FIG. 11D, 12)
  apoptosis (Annexin V) in healthy haematopoietic cells: increased apoptosis
[1]; [4]
  expression of differentiation markers, such as CD11b and CD14: increase
  proportion of CD34-positive cells: no effect
[2]; [5]
  number of proteins decreasing in cytosolic fraction: 379
  number of proteins increased in cytosolic fraction: 101
[2]; [6]
  number of proteins decreasing in nuclear/organelle fraction: 334
  number of proteins increased in nuclear/organelle fraction: 293
[2]; LSD1i 5 days (FIG. 7B, 22A)
  expression of MAPK pathway enzymes including NRAS, KRAS, MEK1 and P90-S6K (RPS6KA1 isoform): increase
  expression of PI3K p110δ catalytic isoform, AKT2, and RAC1: decrease
[2]; [7]
  proteins involved in the PI3K, insulin and c-MYC signaling pathways: decrease
  α and β-integrin signaling proteins: increase
[3]; 0.5 μM LSD1i 5 days, then 1 μM kinase inhibitor 1 h, P31/Fuj (FIG. 6B)
  phosphorylation sites affected by kinase inhibitors after LSD1i pre-treatment versus vehicle: fewer phosphorylation sites
[3]; LSD1i 5 days, P31/Fuj (FIG. 6F)
  c-Myc phosphorylation at S62: reduced
[3]; LSD1i by itself relative to control (FIG. 6D)
  kinase activities (node centrality): decreased more kinase activities than it increased
[3]; [8]
  number of network axes with decreased enrichment: 18
  number of network axes with increased enrichment: 6
[3]; LSD1i pre-treatment (FIG. 6H, 19 D, E)
  effect of PI3K, AKT, MEK and ERK inhibitors in increasing phosphorylation of epigenetic regulators and histones, CDKs, cyclins and DNA repair proteins: blunted
[3]; [9]
  circuitries containing AKT and MTOR: decrease
  circuitries with PKCI and MEK1 (MAP2K1): increased
[3]; [10]
  AHNAK pS5110 phosphorylation: increased
  PI3K/AKT pathway markers GSK3B pS13 and RPS6 p236, and MAPK pathway marker MAPK3 (ERK1) pT202: decreased
[3]; control cells versus LSD1i pre-treated cells (FIG. 6G, 19A)
  kinase inhibitor-induced increase in phosphorylation of LSD1/KDM1A at T95 and S93: not in cells pre-treated with LSD1i
